Experimental data published in patent US7785567B2, “Growth hormone-releasing peptides in the treatment or prevention of atherosclerosis and hypercholesterolemia” (Valorisation-Recherche, Société en Commandite, priority 2002, dated 2010).
Where a SMILES comes first, the peptide text is derived from it. Primed or numbered codes have the meaning given here. Where no end group is shown, it is not given here. [ ]: non-standard residue; d: D form. dTrp(2-Me) = Cc1[nH]c2ccccc2c1C[C@@H](N)C(=O)O; Haic′ = not defined here

What was measured:
ApoE-null mice [1] = assay: Fatty streak lesion area in aortas, treatment begun after start of HFHC diet (Example 2); format: in vivo, mouse; conditions: HFHC diet from 6 weeks
Procedure: The effects of EP80317 (300 μg/kg per day) administered subcutaneously for 8 weeks (from 10 to 18 weeks of age), 6 weeks (from 12 to 18 weeks of age) and 4 weeks (from 14 to 18 weeks of age) were documented, as well as the effect of hexarelin (100 μg/kg per day) given for 4 weeks (from 14 to 18 weeks of age).
To determine whether GHRPs are able to delay the development or to modulate the regression of fatty streaks, we have used the ApoE-deficient mice to assess the effect of the duration of the treatment with GHRPs on the progression of fatty streaks after the initiation of atherosclerotic lesions induced by a HFHC diet starting at 6 weeks of age.
Male ApoE-null mice (n=35) were housed in cages (less than 5 per cage). After weaning until 4 weeks of age, the mice were fed a normal chow diet and water ad libitum. Starting at 6 weeks of age, the mice were fed a HFHC diet (purchased from Research Diet Inc. (D.12108)). The animals were segregated in 3 groups. • Group 1 (n=10) was subdivided into 2 subgroups, receiving, from 10 to 18 weeks of age (i.e. for 8 weeks), daily injections of EP80317 (300 μg/kg) (n=5) or 0.9% NaCl (n=5). • Group 2 (n=10) was subdivided into 2 subgroups receiving, from 12 to 18 weeks of age (i.e. for 6 weeks), daily injections of EP80317 (300 μg/kg/per day) (n=5) or 0.9% NaCl (n=5). • Group 3 (n=15) was subdivided into 3 subgroups, receiving, from 14 to 18 weeks of age (i.e. for 4 weeks), EP80317 (300 μg/kg/per day) (n=5), or hexarelin (100 μg/kg per day) (n=5) or 0.9% NaCl (n=5).
Mice were euthanised at 18 weeks of age. The entire aortas from the heart extending 5-10 mm after bifurcation of the iliac arteries and including the subclavian right and left common carotids were removed, dissected and evaluated for lesion development by en face oil red-O staining and morphometry of scanned images using the software Scion image (Scion Corp., Frederick, Md.).

CD36 = assay: Western blot of oxLDL-elicited peritoneal macrophages from treated ApoE-null mice; format: in vivo, mouse; conditions: HFHC diet, HEX 100 μg/kg or EP80317 300 μg/kg per day, 12 weeks, normalised to β-actin, vehicle set at 100%
Source text: GHRPs modulate CD36 and ABCA1 protein levels in peritoneal macrophages from ApoE-null mice fed a HFHC diet for 12 weeks. […] Relative protein levels for A, CD36 and B, ABCA1 are normalised to β-actin and expressed as % of change compared to vehicle (0.9% NaCl)-treated controls set at 100%. Data represent the mean of two independent experiments.

[2] = system: human monocytic THP-1 cells; assay: Lipid accumulation in PMA-differentiated THP-1 macrophages (Oil Red O extraction, 510 nm); format: cell-based; conditions: 10 μM for 24 hrs
Procedure: A: GHRPs reduce lipid accumulation in differentiated human macrophages. To induce lipid accumulation, human monocytic THP-1 cells were differentiated to macrophages with 5 ng/mL PMA for 48 hrs and then treated as indicated for 24 hrs with 10 μM HEX or EP80317 in the presence of phorbol myristate acetate (PMA). Non-differentiated cells (no PMA) were also analysed. Lipid accumulation was quantified by photometry at 510 nm following extraction of Oil Red O from stained cells. Lipid staining was reduced by 35% and 28% in macrophages treated with HEX and EP80317, respectively, compared to untreated cells.

ApoE-null mice [3] = assay: Plasma lipid analysis (enzymatic kits) after 12 weeks treatment; format: in vivo, mouse; conditions: HFHC diet; for Increase in HDL cholesterol compared to controls: HEX 100 μg/kg or EP80317 300 μg/kg per day for 12 weeks, tended to be increased
Procedure: A: Effects of 12 weeks treatment (from 6 weeks old) with 0.9% NaCl (open bar), HEX, 100 μg/kg per day (solid bar) or EP80317 300 μg/kg per day (cross-hatched bar) on total plasma cholesterol in mice fed a HFHC or a normal diet.
The animals were housed in cages (less than 5 per cage) and fed a normal chow diet and water ad libitum. At 6 weeks of age, male C57BL/6, CD36 and ApoE-null mice were assigned to 1 of 3 groups (n=12 mice per group): Group 1 received daily injections of 0.9% NaCl (1 μL/g); Group 2, HEX (100 μg/kg, 1 μL/g), and Group 3, EP80317 (300 μg/kg, 1 μL/g). All three groups of mice were fed a HFHC diet (purchased from Research Diet Inc. (D.12108)) from 6 weeks of age. Daily s.c. treatment with HEX, EP80317 or vehicle was begun at 6 weeks old and continued for 12 weeks. Four days before sacrifice, 6 mice from Groups 1 to 3 were injected i.p. with oxLDL (minimally oxidized, 3-6 mmol/mg protein, as determined by Thiobarbituric Acid Reactive Substances (TBARS) assay). At 18 weeks old, mice were fasted overnight, anaesthetised with ketamine-xylazine (90:10 mg/kg) two hours after the s.c. administration of the morning dose of the drug under study. Blood (1 mL) was taken from the heart and put into EDTA pre-coated microcontainers (BD, Franklin Lakes, N.J., USA). Mice were killed, the hearts were perfused with 20 mL 0.9% NaCl. The peritoneal cavity was washed with 3 mL of heparinised saline (10 units/mL) in mice injected i.p. with oxLDL. A hemacytometer and stained cytospin preparation (Diff Quick stain, Dade Diagnostics of P.R. Inc., Aguada, PR) were used to determine the total and differential leukocyte numbers, respectively, for the peritoneal cavity lavage fluid. The entire aorta from the heart, extending 5-10 mm after bifurcation of the iliac arteries and including the subclavian right and left common carotid arteries, was removed, dissected, and evaluated for lesion development by en face oil red-O staining and morphometry of scanned images using the software Scion Image (Scion Corp., Fredrick, Md.). The animal study protocol was reviewed and approved by the institutional Animal Ethics Committee of the Université de Montréal and conducted in accordance with the Canadian Council on Animal Care guidelines for use of experimental animals.
Total plasma cholesterol, triacylglycerol and HDL cholesterol were determined using enzymatic kits (Sigma Chemicals). Appropriate standards and controls were included in each assay.

ApoE-null mice [4] = assay: Fatty streak lesion area in aortas, en face oil red-O staining, 12 weeks treatment (Example 1); format: in vivo, mouse; conditions: HFHC diet, HEX 100 μg/kg per day or EP80317 300 μg/kg per day s.c. for 12 weeks from 6 weeks old, vs 0.9% NaCl
Procedure: GHRPs prevent fatty streak formation in ApoE deficient mice fed a HFHC diet for 12 weeks (from 6 weeks old). Effects of HEX (100 μg/kg per day) and of EP80317 (300 μg/kg per day), administered subcutaneously for 12 weeks (from 6 weeks old).
To determine whether GHRPs reduce atherosclerosis development, we have used the ApoE deficient mice strain and their C57BL/6 control littermates to assess the effects of prolonged (12 weeks) GHRPs treatment on fatty streak formation in mice fed a an enriched lipid diet. The surface area of oil red-O staining aortas of mice has been used as an index of plaque development and changes in the plasma levels of lipids as an index of hypolipemic effect. […]
(§1) The animals were housed in cages (less than 5 per cage) and fed a normal chow diet and water ad libitum. […] Four days before sacrifice, 6 mice from Groups 1 to 3 were injected i.p. with oxLDL (minimally oxidized, 3-6 mmol/mg protein, as determined by Thiobarbituric Acid Reactive Substances (TBARS) assay). […] The entire aorta from the heart, extending 5-10 mm after bifurcation of the iliac arteries and including the subclavian right and left common carotid arteries, was removed, dissected, and evaluated for lesion development by en face oil red-O staining and morphometry of scanned images using the software Scion Image (Scion Corp., Fredrick, Md.). […]

[5] = system: peritoneal macrophages isolated from ApoE-null mice; assay: Lipid accumulation in peritoneal macrophages isolated from treated ApoE-null mice (Oil Red O extraction); format: in vivo, mouse; conditions: HFHC diet from 13 to 18 weeks old, EP80317 300 μg/kg s.c. from 13 to 18 weeks old, vs not treated
Procedure: B: GHRPs reduced lipid accumulation in peritoneal macrophages isolated from ApoE-null mice fed a HFHC diet from 13 to 18 weeks old. EP80317 (300 μg/kg) s.c. has been administered from 13 to 18 weeks old. Lipid staining (assessed by Oil Red O extraction) was reduced by 57% (compared to peritoneal macrophages isolated from ApoE-null mice fed a HFHC diet from 13 weeks old, but not treated with EP80317).

ApoE-null mice [6] = assay: oxLDL-induced accumulation of macrophages in the peritoneal cavity; format: in vivo, mouse; conditions: normal chow diet, EP80317 300 μg/kg per day, 12 weeks
Procedure: B: Effects of 12 weeks treatment (from 6 weeks old) with 0.9% NaCl (open bar), HEX, 100 μg/kg per day (solid bar) or EP80317, 300 μg/kg per day (cross-hatched bar) on oxLDL-induced accumulation of macrophages in the peritoneal cavity in ApoE-null mice fed either a HFHC or a normal diet. Peritoneal macrophage accumulation was reduced by 39% in mice fed a normal diet.
as §1, with “libitum. At 6 weeks of age, male C57BL/6, CD36 and ApoE-null mice were assigned to 1 of 3 groups (n=12 mice per group): Group 1 received daily injections of 0.9% NaCl (1 μL/g); Group 2, HEX (100 μg/kg, 1 μL/g), and Group 3, EP80317 (300 μg/kg, 1 μL/g). All three groups of mice were fed a HFHC diet (purchased from Research Diet Inc. (D.12108)) from 6 weeks of age.” for “libitum.”

CD36-null mice = assay: as above; format: in vivo, mouse; conditions: HFHC diet, EP80317 300 μg/kg per day, 12 weeks
Procedure: (§2) A: Effects of 12 weeks treatment (from 6 weeks old) with 0.9% NaCl (open bar), HEX, 100 μg/kg per day (solid bar) or EP80317, 300 μg/kg per day (cross-hatched bar) on oxLDL (250 μg i.p., <6 nmol MDA/mg lipoprotein)-induced accumulation of macrophages in the peritoneal cavity in wild type C57BL/6 mice and CD36-null mice fed a HFHC diet. Peritoneal macrophage accumulation in wild type mice tended to be reduced by 37%.
as §1, with “libitum. At 6 weeks of age, male C57BL/6, CD36 and ApoE-null mice were assigned to 1 of 3 groups (n=12 mice per group): Group 1 received daily injections of 0.9% NaCl (1 μL/g); Group 2, HEX (100 μg/kg, 1 μL/g), and Group 3, EP80317 (300 μg/kg, 1 μL/g).” for “libitum.”

wild type C57BL/6 mice = assay: as above; format: in vivo, mouse; conditions: HFHC diet, EP80317 300 μg/kg per day, 12 weeks, oxLDL 250 μg i.p.
Procedure: as §2
as §1, with “libitum. At 6 weeks of age, male C57BL/6, CD36 and ApoE-null mice were assigned to 1 of 3 groups (n=12 mice per group): Group 1 received daily injections of 0.9% NaCl (1 μL/g); Group 2, HEX (100 μg/kg, 1 μL/g), and Group 3, EP80317 (300 μg/kg, 1 μL/g).” for “libitum.”

[7] = cited from earlier work
[8] = treatment for 4 weeks (14 to 18 weeks of age), EP80317 300 μg/kg or hexarelin 100 μg/kg per day, not significant
[9] = EP80317 300 μg/kg daily for 12 weeks from 6 weeks old

| Molecule | Reduction of lesion area (% total aorta area) compared to controls (ApoE-null mice [1]; [8]) [%] | CD36 protein expression in peritoneal macrophages, % of controls (CD36) | Reduction of lipid staining compared to untreated cells [2] [%] | Increase in HDL cholesterol compared to controls (ApoE-null mice [3]) [%] | Reduction of lesion area (% of total aorta area) compared to controls (ApoE-null mice [4]) [%] | Reduction of lipid staining in peritoneal macrophages (Oil Red O extraction) [5] [%] | Reduction of lesion area (% total aorta area) compared to controls (ApoE-null mice [1]; treatment for 6 weeks (12 to 18 weeks of age), EP80317 300 μg/kg per day s.c.) [%] | Reduction of lesion area (% total aorta area) compared to controls (ApoE-null mice [1]; treatment for 8 weeks (10 to 18 weeks of age), EP80317 300 μg/kg per day s.c.) [%] | Decrease in non-HDL plasma cholesterol compared to controls (ApoE-null mice [3]; [9]) [%] | Decrease in total plasma cholesterol compared to controls (ApoE-null mice [3]; [9]) [%] | Reduction of oxLDL-induced peritoneal macrophage accumulation (ApoE-null mice [6]) [%] | oxLDL-induced peritoneal macrophage accumulation (CD36-null mice) | Reduction of oxLDL-induced peritoneal macrophage accumulation (wild type C57BL/6 mice) [%] | GH-secreting activity in vivo [7] |
| --- | --- | --- | --- | --- | --- | --- | --- | --- | --- | --- | --- | --- | --- | --- |
| Cc1[nH]c2ccccc2c1C[C@@H](NC(=O)[C@@H](N)Cc1cnc[nH]1)C(=O)N[C@@H](C)C(=O)N[C@@H](Cc1c[nH]c2ccccc12)C(=O)N[C@H](Cc1ccccc1)C(=O)N[C@@H](CCCCN)C(N)=O [HEX, His-(D) -(Me)Trp-Ala-Trp-(D)-Phe-Lys-NH2, reference compound] (H-H[dTrp(2-Me)]AW[dF]K-NH2) | 8 | 57 % of controls | 35 | 65 | 28 |  |  |  |  |  |  |  |  |  |
| Haic-(D) -(Me)Trp-(D)-Lys-Trp-(D)-Phe-Lys-NH2 ([Haic′]W[dK]W[dF]K-NH2; not fully specified (residue 2)) [EP80317] | 36 | 27 % of controls | 28 | 73 | 51 | 57 | 31.3 | 39.2 | 31 | 30 | 39 | did not modulate macrophage accumulation | 37 | devoid of GH-secreting activity in vivo |
